We go through two sequences from patent publication US20190359653A1, “SELECTIVE PEPTIDE INHIBITORS OF FRIZZLED” (Genentech, Inc., priority 2016, published 2019).

Experiment [1] concerns the target T1, Wnt5a binding to FZD4 CRD (Homo sapiens, UniProt Q9ULV1).
T1 construct: hFZD4 CRD-Fc (cat no. 5847-FZ); purchased R&D systems 5847-FZ
T1 sequence (Q9ULV1 40-161 limits assumed): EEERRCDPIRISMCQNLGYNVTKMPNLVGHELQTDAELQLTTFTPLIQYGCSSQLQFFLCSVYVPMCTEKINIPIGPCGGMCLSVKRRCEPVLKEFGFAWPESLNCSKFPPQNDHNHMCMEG
The experiment can be described thus: ELISA of biotinylated Wnt5a binding to FZD CRD-Fc. Conditions: peptide 0-10 μM. The protocol: 384-well Maxisorp plates (cat. no. 464718; Thermo Scientific) were incubated with 30 μL of Neutravidin (cat. no. 31000, Thermo Scientific; 2 μg/mL in PBS) overnight at 4° C. Plates were then washed with PBST and blocked with PBS/1% BSA for 1 hour at RT and then washed with PBST prior to further processing. The binding assay was conducted in 96 well plates (cat no. 83007-374; VWR) which were blocked with PBS/1% BSA overnight at 4° C. hFZD4 CRD-Fc or hFZD7 CRD-Fc (63 ng/mL) were incubated with either Bio-Wnt3a (25 ng/mL) or Bio-Wnt5a (50 ng/mL) in the presence of 4-fold serial dilutions of the indicated peptide in PBS overnight at 4° C. All assays included hFZD9 CRD-mIgG2A protein as a negative control. hFZD7 CRD-His was suspended in 150 mM NaCl, 50 mM Tris-HCl at pH 7.5 and when used in assays an equal volume of the same buffer control was used. The binding assay mixtures were transferred to the Neutravidin coated plates and incubated for ˜1 h at RT. The wells were then washed with PBST, incubated with anti-hIgG1-HRP (1:10,000 suspended in PBS supplemented with 1% BSA; cat. no. A18817, Invitrogen), and washed again with PBST. The signal was developed with the addition of TMB reagent (following the manufacturer's recommendation; KPL; 50-76-00) for 15 min prior to the addition of an equal volume of 1 M phosphoric acid for 10 min Absorbance was measured at 450 nm using a Tekan M1000 plate reader. Values were collected and plotted using Prism Graphpad software. All assay conditions using peptides were at 1% DMSO final concentration. […]
Briefly, the assays were performed using (a) FZD1 CRD-Fc, (b) FZD2 CRD-Fc, (c) FZD4 CRD-Fc, or (d) FZD7 CRD-Fc as the capture reagent and biotinylated-Wnt5a as the detection reagent. […] Streptavidin-HRP was used to detect biotinylated Wnt5a, and HRP activity was measured as a function of chemiluminescence detection at 428 nm. […]
For orientation: In an ELISA, binding on a coated surface is turned into a signal by an enzyme label.

Experiment [2] relates to intestinal epithelia of C57BL/6 mice. The experiment can be described thus: RT-PCR of intestinal epithelia from treated mice. In kind it is in vivo, mouse. The settings on record: intraperitoneal, 6 h; FIGS. 20A-20C. The protocol: RNA from organoid samples was isolated using the RNeasy Micro kit (cat. no. 74004; Qiagen) according to the manufacturer's instructions. Mouse small intestine RNA was collected using the RNeasy Mini Kit (cat. no. 74104; Qiagen). qRT-PCR was performed in 10 μL reactions with 50 ng total RNA using One-step Real-time RT-PCR mastermix (cat. no. 4392938; Life Technologies) according to the manufacturer's instructions. Taqman probes from Life Technologies were used: Actb (Mm01205647_g1); Lgr5 (Mm01251801_m1); Axin2 (Mm00443610_m1); Ascl2 (Mm01268891_g1); Olfm4 (Mm01320260_m1); Muc2 (Mm01276696_m1); ACTB(Hs99999903_m1); ACTB(Mm00607939_s1); GAPDH (Mm99999915_g1); and GAPDH(Hs03929097_g1). RT-PCR reactions were run using a 7900HT Fast Real-Time PCR system (ABI) at the following thermal cycling conditions: Holding step of 30 min at 48° C., followed by a holding step of 10 min at 95° C., and 40 cycles of 10 sec at 95° C. and 1 min at 60° C. Values were normalized to actin transcript levels and then normalized to control as described in the figure legend.
C57BL/6 female mice (8 weeks old) were subjected to intraperitoneal injection once per hour (˜150-200 μL injection volume for five injections) until the indicated peptide dose was reached. […]
The pharmacological effect of dFz7-21 was further investigated in vivo. […] Following treatment, RT-PCR was performed to quantify transcript levels.

Entries after “also recorded” stand apart in the source; their conditions may differ.

Take “LPSDDLEFWSHVMY [Fz7-21S, negative control]”: the “effect on Wnt5a binding to FZD4 CRD” value in experiment [1] was “showed no effect”. Further, in experiment [2], the “Lgr5, Ascl2 and Axin2 transcript levels” value is reported as “did not affect”.
On to LPSDDLEFWCHVMY [dFz7-21], for which the “effect on Wnt5a binding to FZD4 CRD” value in experiment [1] is “did not show any effect; also recorded: no such effect”. In addition, in experiment [2], the “Lgr5, Ascl2 and Axin2 transcript levels” value was “significantly down regulated”.
